Measurements: patent publication US6846827B1, “Pyrimidine derivatives” (AstraZeneca AB, priority 1999, dated 2005)

What was measured:
[1] = biological target: T1, p38α (Homo sapiens, UniProt Q16539); experiment: In vitro enzyme assay, p38α; type: biochemical; details: read-out: IC50 against p38α
T1 construct: c-myc (N); 6His (N); made in house; host or cells: E. coli (PET vectors)
Description: The ability of compounds of the invention to inhibit the enzyme p38 kinase was assessed. Activity of test compounds against each of the p38α and p38β isoforms of the enzyme was determined. […]
Test compounds were solubilised in DMSO and 10 μl of a 1:10 diluted sample in ‘Kinase Buffer’ was added to a well in a Microtiter plate. […] The precipitated protein was phosphorylated by p38 kinase and test compounds were assessed for their ability to inhibit this phosphorylation. The plates were filtered using a Canberra Packard Unifilter and washed with 2% TCA, dried overnight and counted on a Top Count scintillation counter.
Test compounds were tested initially at a single dose and active compounds were retested to allow IC50 values to be determined.

[2] = system: TNFα production in human whole blood; experiment: Human Whole Blood test: inhibition of LPS-stimulated TNFα production; type: cell-based
Description: The ability of the compounds of this invention to inhibit TNFα production was also assessed in a human whole blood assay. Human whole blood secretes TNFα when stimulated with LPS. This property of blood forms the basis of an assay which is used as a secondary test for compounds which profile as active in the PBMC test.
Heparinised (10 units/ml) human blood was obtained from volunteers. 160 μl whole blood were added to 96 well round-bottom plates (Corning 25850). Compounds were solubilised and serially diluted in RPMI 1640 medium (Gibco) supplemented with 50 units/ml penicillin, 50 μg/ml streptomycin and 2 mM glutamine, as detailed above. 20 μl of each test concentration was added to appropriate wells (triplicate cultures). 20 μl of RPMI 1640 medium supplemented with antibiotics and glutamine was added to control wells. Plates were incubated for 30 minutes at 37° C. (humidified incubator), prior to addition of 20 μl LPS (final concentration 10 μg/ml). RPMI 1640 medium was added to control wells. Six “LPS alone” and four “medium alone” controls were included on each plate. A known TNFα synthesis/secretion inhibitor was included in each test. Plates were incubated for 6 hours at 37° C. (humidified incubator). […] TNFα levels were measured by ELISA (see WO92/10190 and Current Protocols in Molecular Biology, vol 2 by Frederick M. Ausbel et al., John Wiley and Sons Inc.). […]

T1 sequence (Q16539 whole entry): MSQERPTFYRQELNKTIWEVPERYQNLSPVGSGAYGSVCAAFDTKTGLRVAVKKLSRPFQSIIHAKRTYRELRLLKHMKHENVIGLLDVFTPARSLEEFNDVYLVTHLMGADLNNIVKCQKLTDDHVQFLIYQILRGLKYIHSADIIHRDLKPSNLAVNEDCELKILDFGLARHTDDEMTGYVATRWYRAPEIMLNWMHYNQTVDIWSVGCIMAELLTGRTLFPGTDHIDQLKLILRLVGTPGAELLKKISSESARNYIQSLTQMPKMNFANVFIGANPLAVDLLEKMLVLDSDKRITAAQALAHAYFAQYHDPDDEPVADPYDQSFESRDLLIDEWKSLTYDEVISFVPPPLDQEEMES

## Cc1ccc(NC(=O)c2cc(F)cc(N3CCOCC3)c2)cc1Nc1cc(C(N)=O)nc(Cl)n1 [6-Carbamoyl-2-chloro-4-[5-(3-fluoro-5-morpholinobenzamido)-2-methylanilino]-pyrimidine]
[1]
  IC50: ~0.03 µM
[2]
  IC50: ~16 µM
